# Measured values as given in US10195185B2, “3-(1H-imidazo[4,5-C]pyridin-2-yl)-1H-pyrazolo[4,3-B]pyridines and therapeutic uses thereof” (Samumed, LLC, priority 2015, dated 2019).
# How the values were obtained:
# [1] = system: primary human mesenchymal stem cells (hMSCs); test: Induction of chondrogenesis in hMSCs (nodule area, Rhodamine B / Nile Red); type: cell-based; conditions: TGF-β3 as positive control; for Emax: read-out: Max. Activity as % TGF-β3 activity; for EC50: concentration required to induce 50% levels of chondrogenesis, read-out: Conc (nM) of 50% TGF-β3 activity
# Experimental: Representative compounds were screened using primary human mesenchymal stem cells (hMSCs) to determine their ability to induce chondrogenesis (process by which cartilage is developed).
# Primary human mesenchymal stem cells (hMSCs) were purchased from Lonza (Walkersville, Md.) and expanded in Mesenchymal Stem Cell Growth Media (Lonza). Cells between passage 3 and 6 were used for the experiments.
# Each compound was dissolved in DMSO as a 10 mM stock and used to prepare compound source plates. For the 96 well assay, serial dilution (1:3, 6-point dose-response curves from 2700 nM to 10 nM) and compound transfer was performed using the ECHO 550 (Labcyte, Sunnyvale, Calif.) into 96-well clear bottom assay plates (Greiner Bio-One) with appropriate DMSO backfill for a final DMSO concentration of 0.03%. hMSCs were plated at 20,000 cells/well in 250 μL/well Incomplete Chondrogenic Induction Medium (Lonza; DMEM, dexamethasone, ascorbate, insulin-transferrin-selenium [ITS supplement], gentamycin-amphotericin [GA-1000], sodium pyruvate, proline and L-glutamine). TGF-β3 (10 ng/mL) was used as a positive control for differentiation while negative control wells were treated with 75 nL DMSO for normalization and calculating EC50 values. For the 384 well assay, serial dilution (1:3, 8-point dose-response curves from 5000 nM to 2.2 nM) and compound transfer was performed using the ECHO 550 (Labcyte, Sunnyvale, Calif.) into 384-well clear bottom assay plates (Greiner Bio-One) with appropriate DMSO backfill for a final DMSO concentration of 0.03%. hMSCs were plated at 8,000 cells/well in 80 μL/well Incomplete Chondrogenic Induction Medium (Lonza; DMEM, dexamethasone, ascorbate, insulin-transferrin-selenium [ITS supplement], gentamycin-amphotericin [GA-1000], sodium pyruvate, proline and L-glutamine). TGF-β3 (10 ng/mL) was used as a positive control for differentiation while negative control wells were treated with 25 nL DMSO for normalization and calculating EC50 values. Cells were incubated at 37° C. and 5% CO2 for 6 days. To image chondrogenic nodules, the cells were fixed using 4% formaldehyde (Electron Microscopy Sciences), and stained with 2 μg/mL Rhodamine B (Sigma-Aldrich) and 20 μM Nile Red (Sigma-Aldrich) [Johnson K., et. al, A Stem Cell-Based Approach to Cartilage Repair, Science, (2012), 336(6082), 717-721]. The nodules imaged (25 images per well for 96 well plates and 9 images per well for 384 well plates at 10× magnification) by excitation at 531 nm and emission at 625 nm and quantified using the CellInsight CX5 (Thermo Scientific). Area of nodules in each well was normalized to the average of 3 DMSO treated wells on the same plate using Excel (Microsoft Inc.). The normalized averages (fold change over DMSO) of 2 or 3 replicate wells for each compound concentration were calculated. Due to solubility limitations of some of the compounds, curve fitting was incomplete leading to inaccurate EC50 determinations.
# Using TGF-β3 as a positive control, the concentration of representative compounds required to induce 50% levels of chondrogenesis is reported. In addition, the maximum activity of each compound and the respective dose that each compound reached maximum chondrogenesis activity is reported.
# [2] = system: IL-6 in human monocyte cell line (THP-1 cells); test: IL-6 inhibition in LPS-stimulated THP-1 cells (HTRF); type: cell-based; conditions: IL-6 in LPS-stimulated THP-1 cells; for EC50: HTRF; for inhibition at 10 µM: read-out: percent inhibition in brackets beside EC50 >10 μM
# Outline: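 Readout is the 665/620 nm HTRF ratio for secreted IL-6, normalized to DMSO wells, with EC50 from a variable-slope four-parameter fit, or % inhibition at 10 μM when above 10 μM. Cells (1% FBS, 24 h beforehand) got compound for 2 h, then LPS 500 ng/mL for 22 h at 37° C; top dose 10 μM, 0.1% DMSO.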
Structure (SMILES),EC50 [1] [nM],EC50 [2] [nM],Emax [1] [%],inhibition at 10 µM [2] [%]
"Cc1ncc(-c2ccc3[nH]nc(-c4nc5c(-c6cccc(F)c6)nccc5[nH]4)c3n2)s1 [Compound 1126, 5-(3-(4-(3-Fluorophenyl)-1H-imidazo[4,5-c]pyridin-2-yl)-1H-pyrazolo[4,3-b]pyridin-5-yl)-2-methylthiazole]",,> 10000,43,0
"Nc1cncc(-c2ccc3[nH]nc(-c4nc5c(-c6ccccc6F)nccc5[nH]4)c3n2)c1 [Compound 59, 5-(3-(4-(2-Fluorophenyl)-1H-imidazo[4,5-c]pyridin-2-yl)-1H-pyrazolo[4,3-b]pyridin-5-yl)pyridin-3-amine]",10,> 10000,108,30.6
"FC1(F)CCN(Cc2cncc(-c3ccc4[nH]nc(-c5nc6c(-c7ccsc7)nccc6[nH]5)c4n3)c2)C1 [Compound 306, 5-(5-((3,3-difluoropyrrolidin-1-yl)methyl)pyridin-3-yl)-3-(4-(thiophen-3-yl)-1H-imidazo[4,5-c]pyridin-2-yl)-1H-pyrazolo[4,3-b]pyridine]",100,3660,53,
"CN(C)c1cncc(-c2ccc3[nH]nc(-c4nc5c(N6CCCCC6)nccc5[nH]4)c3n2)c1 [Compound 175, N,N-Dimethyl-5-(3-(4-(piperidin-1-yl)-1H-imidazo[4,5-c]pyridin-2-yl)-1H-pyrazolo [4,3-b]pyridin-5-yl)pyridin-3-amine]",,> 10000,48,0
"CC(C)(C)CC(=O)Nc1cncc(-c2ccc3[nH]nc(-c4nc5cnccc5[nH]4)c3n2)c1 [Compound 268, N-(5-(3-(1H-Imidazo[4,5-c]pyridin-2-yl)-1H-pyrazolo[4,3-b]pyridin-5-yl)pyridin-3-yl)-3,3-dimethylbutanamide]",10,> 10000,54,19
"Cc1cn(-c2nccc3[nH]c(-c4n[nH]c5ccc(-c6cncc(NC(=O)C(C)(C)C)c6)nc45)nc23)cn1 [Compound 204, N-(5-(3-(4-(4-Methyl-1H-imidazol-1-yl)-1H-imidazo[4,5-c]pyridin-2-yl)-1H-pyrazolo[4,3-b]pyridin-5-yl)pyridin-3-yl)pivalamide]",30,> 10000,70,41.8

# The next lines start with results.
EC50 [1] [nM],EC50 [2] [nM],Structure (SMILES),Emax [1] [%],inhibition at 10 µM [2] [%]
7,3670,"CCCC(=O)Nc1cncc(-c2ccc3[nH]nc(-c4nc5c(-c6ccsc6)nccc5[nH]4)c3n2)c1 [Compound 297, N-(5-(3-(4-(Thiophen-3-yl)-1H-imidazo[4,5-c]pyridin-2-yl)-1H-pyrazolo [4,3-b]pyridin-5-yl)pyridin-3-yl)butyramide]",358,
300,> 10000,"CCCC(=O)Nc1cncc(-c2ccc3[nH]nc(-c4nc5c(-c6ccncc6)nccc5[nH]4)c3n2)c1 [Compound 129, N-(5-(3-(4-(Pyridin-4-yl)-1H-imidazo[4,5-c]pyridin-2-yl)-1H-pyrazolo[4,3-b]pyridin-5-yl)pyridin-3-yl)butyramide]",70,12.5
30,482,"CC(C)Nc1cncc(-c2ccc3[nH]nc(-c4nc5c(-c6ccoc6)nccc5[nH]4)c3n2)c1 [Compound 320, 5-(3-(4-(Furan-3-yl)-1H-imidazo[4,5-c]pyridin-2-yl)-1H-pyrazolo[4,3-b]pyridin-5-yl)-N-isopropylpyridin-3-amine]",76,
30,> 10000,"COc1cccc(-c2nccc3[nH]c(-c4n[nH]c5ccc(-c6cccnc6)nc45)nc23)c1 [Compound 994, 3-(4-(3-Methoxyphenyl)-1H-imidazo[4,5-c]pyridin-2-yl)-5-(pyridin-3-yl)-1H-pyrazolo[4,3-b]pyridine]",51,18.6
30,> 10000,Cc1cn(-c2nccc3[nH]c(-c4n[nH]c5ccc(-c6cncc(NC(=O)CC(C)C)c6)nc45)nc23)cn1 [Compound 198],69,25.2
,> 10000,"COc1cccc(-c2nccc3[nH]c(-c4n[nH]c5ccc(-c6cncc(NC(=O)Cc7ccccc7)c6)nc45)nc23)c1 [Compound 1000, N-(5-(3-(4-(3-methoxyphenyl)-1H-imidazo[4,5-c]pyridin-2-yl)-1H-pyrazolo [4,3-b]pyridin-5-yl)pyridin-3-yl)-2-phenylacetamide]",41,11.4
